Source: US8835422B2, “Substituted imidazoheterocycle derivatives” (Cara Therapeutics, Inc., priority 2008, dated 2014)

Key:
[1] = target: T1, human CB2 receptor (hCB2) (Homo sapiens, UniProt P34972); test: cAMP assay (LANCE TR-FRET) in CHO-K1 cells stably expressing hCB2; type: cell-based
T1 construct: host or cells: CHO-K1
Protocol: (§1) The ability of compounds to act as agonists or inverse agonists at human CB2 and CB1 receptors (hCB2, hCB1, respectively) and at the rat CB2 receptor (rCB2) was determined by measuring changes in intracellular cAMP levels. Chinese Hamster Ovary (CHO-K1) cell lines stably expressing hCB2 (Genebank: X74328) or hCB1 (Genebank: X54937) were purchased from Euroscreen (Gosselies, Belgium). The rat CB2 receptor was expressed from genomic DNA (provided by M. Abood, California Pacific Medical Center) in CHO-K1 cells from expression plasmid vector, pcDNA3.1.
(§2) Receptor mediated responses were determined by measuring changes in intracellular cAMP using LANCE cAMP detection kit (cat #AD0264, Perkin Elmer, Wellesley, Mass.) based on time-resolved fluorescence resonance energy transfer (TR-FRET).
(§3) On the day of the experiment, cells were spun at low speed for 5 min at room temperature. […] Cell clumps were removed by filtering through cell strainer 40 μm (BD Falcon, Discovery Labware, Bedford, Mass.) and diluted to 2×10^5 cells/mL. Antibody supplied with the LANCE cAMP immunoassay kit was then added according to the manufacturer's instructions. An aliquot of cells was taken for un-induced controls. […] Cells were then incubated for 30 min at room temperature prior to adding to Proxiplates containing test compounds (final DMSO concentration was less than 0.5%) with a Multidrop bulk dispenser, followed by a sixty minute incubation at room temperature. The response was stopped by addition of the detection mix supplied with the LANCE kit. The reagents were allowed to equilibrate for three hours prior to reading on an Envision multi-mode detector (Perkin-Elmer). TR-FRET was measured using a 330-380 nm excitation filter, a 665 nm emission filter, dichroic mirror 380 nm and Z=1 mm. Cyclic AMP concentrations in each well were back-calculated from a cAMP standard curve run concurrently during each assay. Each plate contained 16 wells of forskolin stimulated cells and 16 wells of forskolin plus CP55,940-treated cells. […] Concentrations of cAMP were expressed as a percent of the difference of these two groups of wells.

[2] = target: human CB1 receptor (hCB1) (Homo sapiens, UniProt P21554); test: cAMP assay (LANCE TR-FRET) in CHO-K1 cells stably expressing hCB1; type: cell-based
Protocol: as §1, §2, §3

[3] = test system: acetic acid-induced writhing; test: Inhibition of acetic acid-induced writhing in mice; type: in vivo, Male ICR mice; settings: dose of 10 mg/kg, subcutaneous, 30 min before acetic acid; writhes over 15 min
From the text: 12: 525-562; Ramabadran and Bansinath (1986) Pharm. Res. 3: 263-270]. Intraperitoneal administration of dilute acetic acid solution causes a writhing behavior in mice. A writhe is defined as a contraction of the abdominal muscles accompanied by an extension of the forelimbs and elongation of the body. The number of writhes observed in the presence and absence of test compounds is counted to determine the analgesic activity of the compounds.
Male ICR mice, 20-40 grams in weight, were weighed and placed in individual observation chambers (usually a 4000 ml beaker) with a fine layer of rodent bedding at the bottom. To determine the activity and potency of test compounds, different doses of the compound solution or vehicle were injected subcutaneously in the back of the neck 30 minutes prior to administration of acetic acid solution. After administration of the compound or vehicle control, mice were returned to their individual observation chambers awaiting the intraperitoneal administration of acetic acid solution. Thirty minutes later, 10 ml/kg of a 0.6% (v/v) acetic acid solution was then injected into the right lower quadrant of the abdomen. Immediately after the injection, the mouse was returned to its observation chamber and the recording of the number of writhes is begun immediately. The number of writhes was counted over a 15-min period starting from the time of acetic acid injection. Raw data were analyzed using a one-way ANOVA followed by Dunnett's post-tests.
For dose-response analysis, raw data were converted to % maximum possible effect (% MPE) using the formula: % MPE=((Wc−Wv)/(0−Wv))×100, where Wc is the number of writhes in compound-treated mice and Wv is the mean number of writhes in vehicle-treated mice. The dose which elicited 50% attenuation of hypersensitivity (ED50) was determined using linear regression analysis. (Tallarida & Murray, 1987).

T1 sequence (P34972 whole entry): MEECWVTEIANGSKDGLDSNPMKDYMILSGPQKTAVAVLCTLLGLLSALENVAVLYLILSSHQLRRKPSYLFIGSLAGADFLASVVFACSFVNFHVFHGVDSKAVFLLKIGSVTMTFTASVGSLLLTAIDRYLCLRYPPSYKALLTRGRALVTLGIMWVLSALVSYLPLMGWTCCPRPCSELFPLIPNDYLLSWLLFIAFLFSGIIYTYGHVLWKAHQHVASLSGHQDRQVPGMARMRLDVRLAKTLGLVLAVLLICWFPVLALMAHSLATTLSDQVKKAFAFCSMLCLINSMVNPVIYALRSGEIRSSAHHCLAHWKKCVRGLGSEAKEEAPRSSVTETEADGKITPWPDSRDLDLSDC
Sequence of human CB1 receptor (hCB1) (P21554 whole entry): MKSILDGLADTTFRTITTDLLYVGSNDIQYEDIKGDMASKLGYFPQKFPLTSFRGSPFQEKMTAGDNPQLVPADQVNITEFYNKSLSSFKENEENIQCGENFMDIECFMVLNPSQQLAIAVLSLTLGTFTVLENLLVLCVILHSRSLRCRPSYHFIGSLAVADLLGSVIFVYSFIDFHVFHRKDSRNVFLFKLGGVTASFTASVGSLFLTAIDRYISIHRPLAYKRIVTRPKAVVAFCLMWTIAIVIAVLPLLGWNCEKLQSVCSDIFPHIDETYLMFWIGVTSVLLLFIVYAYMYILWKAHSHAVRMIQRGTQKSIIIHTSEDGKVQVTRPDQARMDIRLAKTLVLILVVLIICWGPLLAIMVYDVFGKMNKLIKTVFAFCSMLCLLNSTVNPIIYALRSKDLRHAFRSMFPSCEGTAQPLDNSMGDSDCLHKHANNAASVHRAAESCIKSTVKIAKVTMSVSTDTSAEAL

CNC(=O)[C@@H](NC(=O)c1nc(-c2ccc(F)c(F)c2)n2c1CCOCC2)C(C)(C)C [Compound 1-9, (S)-3-(3,4-difluorophenyl)-N-(3,3-dimethyl-1-(methyl-amino)-1-oxobutan-2-yl)-5,6,8,9-tetrahydroimidazo[1,5-d][1,4]oxazepine-1-carboxamide]
EC50 [1]: 0.1 to 10 nM
EC50 [2]: 10 to 100 nM
% maximum possible effect (% MPE), writhing [3]: greater than fifty
